Reference: ChEMBL document CHEMBL4390668, “Discovery and Structural Optimization of Acridones as Broad-Spectrum Antimalarials” (J Med Chem, 2019)
Activity calls are given as the source filed them. No cut-off for these calls is given here.

What was measured:
Plasmodium yoelii = assay: Antimalarial activity against blood stage Plasmodium yoelii MR4 MRA-428 infected in CF1 mouse assessed as suppression of parasitemia administered once daily via oral gavage for 4 days starting from 24 hrs post-infection and measured post-last dose by Giemsa-staining based microscopic analysis; assay type: functional
Plasmodium falciparum [1] = assay: Antimalarial activity against chloroquine-sensitive Plasmodium falciparum D6 infected in human erythrocytes by SYBR green 1-based fluorescence assay; assay type: functional, organism-based
Plasmodium falciparum [2] = assay: Antimalarial activity against multidrug-resistant Plasmodium falciparum Dd2 infected in human erythrocytes by SYBR green 1-based fluorescence assay; assay type: functional, organism-based
Plasmodium falciparum [3] = assay: Antimalarial activity against multidrug-resistant Plasmodium falciparum 7G8 infected in human erythrocytes by SYBR green 1-based fluorescence assay; assay type: functional, organism-based
Plasmodium falciparum [4] = assay: Antimalarial activity against atovaquone-resistant Plasmodium falciparum Tm90-C2B infected in human erythrocytes by SYBR green 1-based fluorescence assay; assay type: functional, organism-based
HepG2 = assay: Cytotoxicity against human HepG2 cells measured after 24 to 36 hrs by resazurin dye based fluorescence assay; assay type: cell-based
[5] = Selectivity index, ratio of IC50 for human HepG2 cells to IC50 for chloroquine-sensitive Plasmodium falciparum D6 infected in human erythrocytes; assay type: toxicity, cell-based; conditions: read-out: Ratio IC50
Plasmodium falciparum [6] = assay: Antimalarial activity against drug-resistant Plasmodium falciparum Dd2 harboring V259L mutant infected in human erythrocytes after 72 hrs by SYBR green 1-based fluorescence assay; assay type: functional, organism-based; conditions: Dd2, 72 h
Plasmodium falciparum [7] = assay: Antimalarial activity against drug-resistant Plasmodium falciparum Dd2 harboring M133I/A138T double mutant infected in human erythrocytes after 72 hrs by SYBR green 1-based fluorescence assay; assay type: functional, organism-based; conditions: Dd2, 72 h
Plasmodium falciparum [8] = assay: Antimalarial activity against Plasmodium falciparum 3D7 infected in human erythrocytes after 72 hrs by SYBR green 1-based fluorescence assay; assay type: functional, organism-based; conditions: 3D7, 72 h
Plasmodium falciparum [9] = assay: Antimalarial activity against drug-resistant Plasmodium falciparum 3D7 harboring A82T/V259L double mutant infected in human erythrocytes after 72 hrs by SYBR green 1-based fluorescence assay; assay type: functional, organism-based; conditions: 3D7, 72 h
Plasmodium falciparum [10] = assay: Inhibition of Plasmodium falciparum cytochrome b-c1
Plasmodium berghei = assay: Antimalarial activity against luciferase-expressing Plasmodium berghei ANKA 676m1cl1 sporozoites infected in human HepG2A16 cells measured after 45 hrs by luciferase-luciferin based reporter assay; assay type: functional, organism-based; conditions: ANKA 676m1cl1, HepG2A16, 45 h
[11] = Half life in human liver microsomes at 1 uM by LC-MS analysis; assay type: ADME, Microsome
[12] = Half life in mouse liver microsomes at 1 uM by LC-MS analysis; assay type: ADME, Microsome
hERG (KCNH2) = hERG (KCNH2) (Homo sapiens, UniProt Q12809); assay: Inhibition of human ERG expressed in CHOK1 cells at 10 uM by automated patch clamp method relative to control; assay type: cell-based; conditions: CHO-K1 cells that express hERG
[13] = Mutagenicity in Salmonella typhimurium TA100 assessed as increase in revertant colonies up to 10 uM in presence of S9 fraction by Ames test; assay type: toxicity, subcellular; conditions: salmonella enterica subsp. enterica serovar typhimurium
[14] = Mutagenicity in Salmonella typhimurium TA100 assessed as increase in revertant colonies up to 10 uM in absence of S9 fraction by Ames test; assay type: toxicity; conditions: salmonella enterica subsp. enterica serovar typhimurium
[15] = Mutagenicity in Salmonella typhimurium TA98 assessed as increase in revertant colonies up to 10 uM in presence of S9 fraction by Ames test; assay type: toxicity, subcellular; conditions: salmonella enterica subsp. enterica serovar typhimurium
[16] = Mutagenicity in Salmonella typhimurium TA98 assessed as increase in revertant colonies up to 10 uM in absence of S9 fraction by Ames test; assay type: toxicity; conditions: salmonella enterica subsp. enterica serovar typhimurium
Plasmodium falciparum [17] = assay: Antimalarial activity against drug-resistant Plasmodium falciparum Dd2 harboring M133I mutant infected in human erythrocytes after 72 hrs by SYBR green 1-based fluorescence assay; assay type: functional, organism-based; conditions: Dd2, 72 h

Sequence of hERG (KCNH2) (Q12809 whole entry): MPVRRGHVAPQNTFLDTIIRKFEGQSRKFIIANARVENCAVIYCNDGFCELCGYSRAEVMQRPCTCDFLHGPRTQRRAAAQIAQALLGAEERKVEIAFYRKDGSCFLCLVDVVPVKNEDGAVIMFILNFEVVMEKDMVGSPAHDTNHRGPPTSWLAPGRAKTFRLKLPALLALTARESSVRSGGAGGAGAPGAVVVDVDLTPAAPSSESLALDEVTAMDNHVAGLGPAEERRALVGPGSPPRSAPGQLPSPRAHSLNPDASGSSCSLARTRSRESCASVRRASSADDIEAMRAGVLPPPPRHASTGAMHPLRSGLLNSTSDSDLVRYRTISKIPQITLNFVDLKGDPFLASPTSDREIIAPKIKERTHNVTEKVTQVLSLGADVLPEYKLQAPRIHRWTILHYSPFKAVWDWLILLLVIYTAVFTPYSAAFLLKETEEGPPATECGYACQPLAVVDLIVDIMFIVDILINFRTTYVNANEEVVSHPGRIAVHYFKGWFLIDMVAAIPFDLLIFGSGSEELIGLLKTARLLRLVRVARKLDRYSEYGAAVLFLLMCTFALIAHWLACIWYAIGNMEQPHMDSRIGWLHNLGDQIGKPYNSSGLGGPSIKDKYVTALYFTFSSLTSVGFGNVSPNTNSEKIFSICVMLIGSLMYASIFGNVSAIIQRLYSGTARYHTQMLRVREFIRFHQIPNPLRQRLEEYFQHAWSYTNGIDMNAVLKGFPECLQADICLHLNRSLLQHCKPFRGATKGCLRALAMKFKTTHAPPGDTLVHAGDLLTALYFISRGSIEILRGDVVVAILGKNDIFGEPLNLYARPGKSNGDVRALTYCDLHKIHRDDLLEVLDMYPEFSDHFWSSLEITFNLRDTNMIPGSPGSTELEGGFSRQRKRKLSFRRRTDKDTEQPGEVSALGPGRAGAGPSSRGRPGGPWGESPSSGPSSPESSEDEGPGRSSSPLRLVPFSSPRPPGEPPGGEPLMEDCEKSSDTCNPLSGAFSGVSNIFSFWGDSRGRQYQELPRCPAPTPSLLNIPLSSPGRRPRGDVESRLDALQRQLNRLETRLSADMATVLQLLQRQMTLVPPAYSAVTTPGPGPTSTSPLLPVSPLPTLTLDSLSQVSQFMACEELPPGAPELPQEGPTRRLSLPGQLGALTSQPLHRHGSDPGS

Structure (SMILES)	ED50 (Plasmodium yoelii) [mg/kg.day]	ED90 (Plasmodium yoelii) [mg/kg.day]	IC50 (Plasmodium falciparum [1]) [nM]	IC50 (Plasmodium falciparum [2]) [nM]	IC50 (Plasmodium falciparum [3]) [nM]	IC50 (Plasmodium falciparum [4]) [nM]	IC50 (HepG2) [nM]	selectivity ratio [5]	IC50 (Plasmodium falciparum [6]) [nM]	IC50 (Plasmodium falciparum [7]) [nM]	IC50 (Plasmodium falciparum [8]) [nM]	IC50 (Plasmodium falciparum [9]) [nM]	inhibition (Plasmodium falciparum [10])	IC50 (Plasmodium berghei) [nM]	other results
CCN(CC)CCOc1ccc2c(=O)c3c(F)cc(F)cc3[nH]c2c1	1.62	9.91	7.8	16 to 20	12	1980	77600	9950	525	60	15	1150	inactive	–	–
CCN(CC)CCOc1ccc2[nH]c3cc(Cl)ccc3c(=O)c2c1	–	–	110	132 to 366	81	97	30000	272	355	340	262	284	inactive	793	half-life at 1 µM [11]: > 60 min; half-life at 1 µM [12]: 34 min
CCCN(CCC)CCOc1ccc2c(=O)c3c(Cl)cc(Cl)cc3[nH]c2c1	0.21	3.54	–	0.003	0.006	153	–	–	–	–	–	–	–	3.7	inhibition at 10 µM (hERG (KCNH2)): 38%; half-life at 1 µM [11]: > 60 min; Activity [13]: Non-Toxic; Activity [14]: Non-Toxic; Activity [15]: Non-Toxic; Activity [16]: Non-Toxic; half-life at 1 µM [12]: > 60 min
CC(C)(C)NCCOc1ccc2c(=O)c3c(Cl)c(Cl)ccc3[nH]c2c1	–	–	106	139 to 679	295	> 2500	38400	362	3070	–	–	–	inactive	–	–
Clc1ccc2c(N3CCN(CCCN4CCN(c5ccnc6cc(Cl)ccc56)CC4)CC3)ccnc2c1 [PIPERAQUINE]	–	–	–	–	–	–	–	–	7.1	7.4	7.2	5	inactive	–	IC50 (Plasmodium falciparum [17]): 10 nM
CCN(CC)CCCC(C)Nc1ccnc2cc(Cl)ccc12 (stereo not drawn) [CHLOROQUINE]	–	–	–	–	–	–	–	–	260	–	–	–	inactive	–	–
CCN(CC)CCCOc1ccc2c(=O)c3c(Cl)cc(Cl)cc3[nH]c2c1	0.43	24.1	19	45	114	228	130000	6840	–	–	–	–	–	138	inhibition at 10 µM (hERG (KCNH2)): 59%; half-life at 1 µM [11]: 9 min; Activity [13]: Non-Toxic; Activity [14]: Non-Toxic; Activity [15]: Non-Toxic; Activity [16]: Non-Toxic; half-life at 1 µM [12]: 16 min
CCN(CC)CCOc1ccc2c(=O)c3c(Cl)cc(Cl)cc3[nH]c2c1	3.09	50.2	8.2	22 to 31	21	465	13400	1630	668	1080	16	612	inactive	–	–
O=c1c2ccc(OCCCCl)cc2[nH]c2ccc(Cl)c(Cl)c12	–	–	3.2	17 to 22	3.1	1040	> 100000	> 31200	551	324	11.1	605	inactive	–	–
CCN(CC)CCCC(C)Nc1c2ccc(Cl)cc2nc2ccc(OC)cc12 (stereo not drawn) [QUINACRINE]	–	–	–	29	–	–	–	–	18	29	–	–	inactive	–	IC50 (Plasmodium falciparum [17]): 23 nM
CN1CCCC1CCOc1ccc2c(=O)c3c(Cl)c(Cl)ccc3[nH]c2c1 (stereo not drawn)	–	–	48	172 to 616	440	368	47600	992	3110	–	–	–	inactive	–	–
C=C[C@H]1CN2CC[C@H]1C[C@H]2[C@H](O)c1ccnc2ccc(OC)cc12 [QUININE]	–	–	–	254	–	–	–	–	215	199	–	–	inactive	–	IC50 (Plasmodium falciparum [17]): 197 nM
O=c1c2ccc(OCCNC34CC5CC(CC(C5)C3)C4)cc2[nH]c2ccc(Cl)c(Cl)c12	–	–	30	77 to 390	176	163	10000	333	1100	–	–	–	inactive	86	–
O=c1c2ccc(OCCN(CCC(F)(F)F)CCC(F)(F)F)cc2[nH]c2cc(F)cc(F)c12	0.66	2.53	0.002	0.015	0.016	2	> 100000	> 100000	–	–	–	–	–	0.09	inhibition at 10 µM (hERG (KCNH2)): 17%; half-life at 1 µM [11]: 20 min; Activity [13]: Non-Toxic; Activity [14]: Non-Toxic; Activity [15]: Non-Toxic; Activity [16]: Non-Toxic; half-life at 1 µM [12]: 33 min
O=C1C(O)=C([C@H]2CC[C@H](c3ccc(Cl)cc3)CC2)C(=O)c2ccccc21 [ATOVAQUONE]	–	–	–	–	–	–	–	–	4.1	–	0.5	1.9	inactive	–	IC50 (Plasmodium falciparum [17]): 6.9 nM
CCCCCCOc1ccc2c(=O)c3c(F)cc(F)cc3[nH]c2c1	1.09	12.7	0.026	0.041	0.05	5.4	> 100000	> 100000	–	–	–	–	–	72	inhibition at 10 µM (hERG (KCNH2)): 20%; Activity [13]: Non-Toxic; Activity [14]: Non-Toxic; Activity [15]: Non-Toxic; Activity [16]: Non-Toxic
O[C@@H](c1cc(C(F)(F)F)nc2c(C(F)(F)F)cccc12)[C@H]1CCCCN1 [(S,R)-MEFLOQUINE]	–	–	–	18	–	–	–	–	23	13	–	–	inactive	–	IC50 (Plasmodium falciparum [17]): 14 nM
